This is an account of results in PMC9428248 (2022).

For assay [1], the system named is Q2 150-206 (RNA, G4) GAGACUAAUGAACUCUUCCGGGAUGGGGUAAACUGGGGUCGCAUUGUGGCCUUUUUCUCCUUC
The experiment in a line: fluorescence enhancement. The settings on record: 100 mM KCl; 10 mM Tris pH 7.0, 25 °C, 10 µM RNA, 1 µM NMM.

Assay [2] concerns XS 38-206 (RNA, mRNA element) GAGACUGAGGGAGGCAGGCGACGAGUUUGAACUGCGGUACCGGCGGGCAUUCAGUGACCUGACAUCCCAGCUCCACAUCACCCCAGGGACAGCAUAUCAGAGCUUUGAACAGGUAGUGAAUGAACUCUUCCGGGAUGGGGUAAACUGGGGUCGCAUUGUGGCCUUUUUCUCCUUC
The experiment in a line: fluorescence enhancement. The settings on record: 100 mM KCl; 10 mM Tris pH 7.0, 25 °C, 10 µM RNA, 1 µM NMM.

Consider `CCc1c(C)c2cc3nc(cc4nc(cc5c(CC)c(C)c(cc1[nH]2)n5C)C(C)=C4CCC(=O)O)C(CCC(=O)O)=C3C`, for which the binding result in assay [1] and in assay [2] was “yes” in each case.
